Patent US6479544B1, “Therapeutic combinations of fatty acids” (Laxdale Limited, priority 2001, dated 2002)
Where two headings read alike, the source gives them in different places.

How the values were obtained:
[1] = system: schizophrenia in patients; assay: Trial of placebo and three doses of EPA in schizophrenia patients also taking clozapine, assessed by PANSS at baseline and 12 weeks; type: in vivo, human
Method: A trial was conducted of the administration of a placebo and three different doses of EPA, 1 g, 2 g and 4 g/day in the treatment of schizophrenia in patients who were also taking the antischizophrenic drug clozapine. […] 31 patents were entered into the study and followed for 12 weeks. They were assessed at baseline and 12 weeks using the Positive and Negative Symptom Scale for Schizophrenia (PANSS). Placebo produced a small effect, 1 g/day produced a larger effect, 2 g/day produced a large effect of 26.0% compared to the usual 15-20% improvements on this scale generated by existing drugs for schizophrenia.

[2] = type: in vivo, human; settings: + means a rise, − a fall
Method: In these patients, and also in a further series of patients, the levels of DGLA, AA, EPA and DHA were measured in human red cells before starting treatment and after 12 weeks. As expected there was a dose-related rise in EPA which was greater the greater the dose. It was also expected that there would be a progressive decline in AA, the larger the EPA dose, the greater the fall in AA.

[3] = system: patients with schizophrenia; assay: Pilot study of AA alone in five patients with schizophrenia; type: in vivo, human; settings: AA given alone
From the text: This interpretation was supported by a pilot study in which AA itself was given to five patients with schizophrenia. […] The administration of AA, without EPA to inhibit phospholipases, may lead to increased formation of eicosanoids rather than to incorporation of AA into phospholipids.

[4] = system: patients with schizophrenia; assay: AA given to two patients who had already been taking EPA; type: in vivo, human; settings: AA 1 g/day added in two patients already taking 2 g/day EPA for 3 months
From the text: The conclusion to be drawn from these studies is that EPA is desirable, not in itself but because it raises the AA level in membrane phospholipids. High doses of EPA, far from being valuable in themselves, may be undesirable because they lead to excessive loss of AA from membranes. The way to get around this issue, and to boost the clearly desirable effects of EPA, is to keep to relatively low doses of EPA, but also to boost the level of AA by administering the EPA with either AA or one of its precursors, DGLA or gamma-linolenic acid GLA.

| SMILES | Percentage improvement from baseline to 12 weeks on PANSS ([1]; 1 g/day) [%] | Percentage improvement from baseline to 12 weeks on PANSS ([1]; 2 g/day) [%] | Percentage improvement from baseline to 12 weeks on PANSS ([1]; 4 g/day) [%] | Change from baseline to 12 weeks in red cell concentration of AA ([2]; 1 g/d) | Change from baseline to 12 weeks in red cell concentration of AA ([2]; 2 g/d) | Change from baseline to 12 weeks in red cell concentration of AA ([2]; 4 g/d) [µg/g] | Condition of patients with schizophrenia [3] | Condition of patients with schizophrenia [4] |
| --- | --- | --- | --- | --- | --- | --- | --- | --- |
| CC/C=C\C/C=C\C/C=C\C/C=C\C/C=C\CCCC(=O)OCC [ethyl eicosapentaenoate] | 18.3 | 26.0 | 16.3 | +2.7 μg/g | +29.4 μg/g | -26.5 |  |  |
| CCCCC/C=C\C/C=C\C/C=C\C/C=C\CCCC(=O)O [AA, arachidonic acid] |  |  |  |  |  |  | their condition deteriorated | substantial further improvement |
| CC/C=C\C/C=C\C/C=C\C/C=C\C/C=C\CCCC(=O)O [EPA, eicosapentaenoic acid] |  | 26.0 |  |  |  |  |  |  |
